Experiments:
EP3 receptor [1] = target: T1, EP3 receptor (Homo sapiens, UniProt P43115); experiment: [3H]-PGE2 binding assay (EP3 competition binding); conditions: read-out: [3H]-PGE2 Binding Ki
T1 construct: purchased Millipore HTS092M
T1 sequence (P43115 1-390): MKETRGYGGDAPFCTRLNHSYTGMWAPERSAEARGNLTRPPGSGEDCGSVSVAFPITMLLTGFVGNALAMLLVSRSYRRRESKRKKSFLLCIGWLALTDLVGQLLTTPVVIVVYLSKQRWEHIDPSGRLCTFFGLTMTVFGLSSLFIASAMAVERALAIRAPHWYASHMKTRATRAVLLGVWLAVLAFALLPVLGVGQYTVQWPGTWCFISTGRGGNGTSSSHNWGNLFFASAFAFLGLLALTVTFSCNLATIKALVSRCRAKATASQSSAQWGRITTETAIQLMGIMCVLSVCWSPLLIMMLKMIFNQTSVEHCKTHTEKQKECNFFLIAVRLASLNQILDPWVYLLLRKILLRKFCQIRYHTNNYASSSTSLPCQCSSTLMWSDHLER
Procedure, shortened: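 Scintillation-bead competition binding with EP3 membranes (2 μg/well), 2 nM [3H]-PGE2, 0.1% DMSO, in 50 mM Tris, 10 mM MgCl2, 1 mM EDTA, pH 7.4.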

EP3 receptor [2] = target: T1, EP3 receptor; experiment: CHO cell cAMP assay (forskolin and sulprostone stimulated, HTRF); format: cell-based; conditions: CHO cells; sulprostone 700 nM (EC80) and FSK 2 μM (EC70), 37° C. for 30 minutes; read-out: CHO_cAMP IC50

Row | Ki (EP3 receptor [1]) | IC50 (EP3 receptor [2]) | SMILES
1 | 0.001 µM | 0.103 µM | CCn1ncc2c(F)cc(-c3ccc(C4(F)CCCN(S(=O)(=O)C(C)C)C4)c(=O)[nH]3)cc21 (stereo not drawn) [compound 296, 6-(1-ethyl-4-fluoro-1H-indazol-6-yl)-3-(3-fluoro-1-(isopropylsulfonyl)piperidin-3-yl)pyridin-2(1H)-one]
2 | 0.006 µM | 0.011 µM | CC(C)C(/C=C1/C(=O)NC(=O)N1C)c1ccc(-c2ccc3cccc(F)c3c2)[nH]c1=O (stereo not drawn) [Compound #80, 5-(2-(6-(8-fluoronaphthalen-2-yl)-2-oxo-1,2-dihydropyridin-3-yl)-3-methylbutylidene)-1-methylimidazolidine-2,4-dione]
3 | 0.049 µM | 1.14 µM | CC(C)C(F)(C(N)=O)c1ccc(-c2ccc3ccccc3c2)[nH]c1=O (stereo not drawn) [compound 217, 2-fluoro-3-methyl-2-(6-(naphthalen-2-yl)-2-oxo-1,2-dihydropyridin-3-yl)butanamide]
4 | 0.186 µM | 4.96 µM | NC(=O)C(C1=CCCCC1)c1ccc(-c2ccc3ccccc3c2)[nH]c1=O (stereo not drawn) [compound 226, 2-(cyclohex-1-en-1-yl)-2-(6-(naphthalen-2-yl)-2-oxo-1,2-dihydropyridin-3-yl)acetamide]
5 | 0.308 µM | 0.734 µM | CC(C)C(/C=C1\OC(=O)NC1=O)c1ccc(-c2ccc3cccc(C(F)(F)F)c3c2)[nH]c1=O (stereo not drawn) [compound 143, 5-(3-methyl-2-(2-oxo-6-(8-(trifluoromethyl)naphthalen-2-yl)-1,2-dihydropyridin-3-yl)butylidene)oxazolidine-2,4-dione]
6 | 0.002 µM | 0.006 µM | CONC1=NC(c2ccc(-c3ccc4cccc(F)c4c3)[nH]c2=O)(C(C)C)CN1 (stereo not drawn) [compound 292, (Z)-6-(8-fluoronaphthalen-2-yl)-3-(4-isopropyl-2-(methoxyimino)imidazolidin-4-yl)pyridin-2(1H)-one]
7 | 0.27 µM | 0.68 µM | CC(C)/C(=C1\OC(=O)NC1=O)c1ccc(-c2ccc3cccc(F)c3c2)[nH]c1=O [compound 304, (E)-5-(1-(6-(8-fluoronaphthalen-2-yl)-2-oxo-1,2-dihydropyridin-3-yl)-2-methylpropylidene)oxazolidine-2,4-dione]
8 | 0.053 µM | 0.385 µM | CC(C)C(Cc1ccc(-c2ccc3cccc(F)c3c2)[nH]c1=O)c1ncc[nH]1 (stereo not drawn) [compound 307, 3-(2-(1H-Imidazol-2-yl)-3-methylbutyl)-6-(8-fluoronaphthalen-2-yl)pyridin-2(1H)-one]
9 | 0.051 µM | 0.243 µM | CC(C)C(C(=O)NS(C)(=O)=O)c1ccc(-c2ccc3ccccc3c2)[nH]c1=O (stereo not drawn) [compound 221, 3-methyl-N-(methylsulfonyl)-2-(6-(naphthalen-2-yl)-2-oxo-1,2-dihydropyridin-3-yl)butanamide]
10 | 0.044 µM | 0.131 µM | CC(C)C(/C=C1\OC(=O)NC1=O)c1ccc(-c2ccc3c(ccn3C)c2)[nH]c1=O (stereo not drawn) [compound 118, (Z)-5-(3-methyl-2-(6-(1-methyl-1H-indol-5-yl)-2-oxo-1,2-dihydropyridin-3-yl)butylidene)oxazolidine-2,4-dione]
11 | 0.368 µM | 0.591 µM | CCN1CCOc2ccc(-c3ccc(C(c4noc(=O)[nH]4)C(C)C)c(=O)[nH]3)cc21 (stereo not drawn) [Compound #278, 3-(1-(6-(4-ethyl-3,4-dihydro-2H-benzo[b][1,4]oxazin-6-yl)-2-oxo-1,2-dihydropyridin-3-yl)-2-methylpropyl)-1,2,4-oxadiazol-5(4H)-one]
12 | 0.012 µM | 0.142 µM | CC(C)C(C(=O)NCCOCCOCCN(C)C)c1ccc(-c2ccc3cccc(F)c3c2)[nH]c1=O (stereo not drawn) [compound 229, N-(2-(2-(2-(dimethylamino)ethoxy)ethoxy)ethyl)-2-(6-(8-fluoronaphthalen-2-yl)-2-oxo-1,2-dihydropyridin-3-yl)-3-methylbutanamide]
13 | 0.343 µM | 4.57 µM | CC(C)C(O)(C(N)=O)c1ccc(-c2ccc3c(c2)OCCN3C)[nH]c1=O (stereo not drawn) [compound 225, 2-hydroxy-3-methyl-2-(6-(4-methyl-3,4-dihydro-2H-benzo[b][1,4]oxazin-7-yl)-2-oxo-1,2-dihydropyridin-3-yl)butanamide]
14 | 0.009 µM | 0.02 µM | CCn1ncc2c(F)cc(-c3ccc(C(CC)(CC)c4nnco4)c(=O)[nH]3)cc21 [Compound #42, 3-(3-(1,3,4-oxadiazol-2-yl)pentan-3-yl)-6-(1-ethyl-4-fluoro-1H-indazol-6-yl)pyridin-2(1H)-one]
15 | 0.005 µM | 0.053 µM | CC(C)C(CC(N)=O)c1ccc(-c2ccc3ccccc3c2)[nH]c1=O (stereo not drawn) [compound 249, 4-methyl-3-(6-(naphthalen-2-yl)-2-oxo-1,2-dihydropyridin-3-yl)pentanamide]
16 | 0.051 µM | 0.476 µM | CCN1CCOc2ccc(-c3ccc(C(C(C)C)N4CCS(=O)(=O)CC4)c(=O)[nH]3)cc21 (stereo not drawn) [Compound #169, 3-(1-(1,1-dioxidothiomorpholino)-2-methylpropyl)-6-(4-ethyl-3,4-dihydro-2H-benzo[b][1,4]oxazin-6-yl)pyridin-2(1H)-one]
17 | 0.015 µM | 0.12 µM | O=C1NC(=O)C2(CCCC(c3ccc(-c4ccc5ccccc5c4)[nH]c3=O)C2)O1 (stereo not drawn) [compound 188, anti-7-(6-(naphthalen-2-yl)-2-oxo-1,2-dihydropyridin-3-yl)-1-oxa-3-azaspiro[4.5]decane-2,4-dione]
18 | 1.8 µM | > 20 µM | CN(C)C1=NC(C)(c2ccc(-c3ccc4ccccc4c3)[nH]c2=O)CN1 (stereo not drawn) [compound 289, 3-[2-(dimethylamino)-4-methyl-4,5-dihydro-1H-imidazol-4-yl]-6-(naphthalen-2-yl)-1,2-dihydropyridin-2-one]
19 | 2.6 µM | 14 µM | CC(C)C(C(=O)NCCN(C)C)c1ccc(-c2ccc3scnc3c2)[nH]c1=O (stereo not drawn) [compound 243, 2-(6-(benzo[d]thiazol-5-yl)-2-oxo-1,2-dihydropyridin-3-yl)-N-(2-(dimethylamino)ethyl)-3-methylbutanamide]
20 | 0.002 µM | 0.023 µM | CONC(=O)CC(c1ccc(-c2ccc3cccc(F)c3c2)[nH]c1=O)C(C)C (stereo not drawn) [compound 257, 3-(6-(8-fluoronaphthalen-2-yl)-2-oxo-1,2-dihydropyridin-3-yl)-N-methoxy-4-methylpentanamide]
21 | > 10 µM | > 20 µM | CCn1cc2ccc(-c3ccc(C(CC4OC(=O)NC4=O)C(C)C)c(=O)[nH]3)cc2n1 (stereo not drawn) [compound 120, 5-(2-(6-(2-ethyl-2H-indazol-6-yl)-2-oxo-1,2-dihydropyridin-3-yl)-3-methylbutyl)oxazolidine-2,4-dione]
22 | 0.038 µM | 1.25 µM | CC(C)S(=O)(=O)N1CCC(c2ccc(-c3ccc4ccccc4c3)[nH]c2=O)CC1 [compound 200, 3-(1-(isopropylsulfonyl)piperidin-4-yl)-6-(naphthalen-2-yl)pyridin-2(1H)-one]
23 | 0.037 µM | 0.482 µM | CCn1ncc2c(F)cc(-c3ccc(C(CC)(CC)c4ncc[nH]4)c(=O)[nH]3)cc21 [compound 31, 6-(1-ethyl-4-fluoro-indazol-6-yl)-3-[1-ethyl-1-(1H-imidazol-2-yl)propyl]-1H-pyridin-2-one]
24 | 0.171 µM | 0.602 µM | CC(C)C(/C=C1\OC(=O)NC1=O)c1ccc(-c2ccc3c(c2)N(C)CCO3)[nH]c1=O (stereo not drawn) [compound 108, (Z)-5-(3-methyl-2-(6-(4-methyl-3,4-dihydro-2H-benzo[b][1,4]oxazin-6-yl)-2-oxo-1,2-dihydropyridin-3-yl)butylidene)oxazolidine-2,4-dione]
25 | 0.053 µM | 0.375 µM | CCN1CCOc2ccc(-c3ccc(C(CN4CCS(=O)(=O)CC4)C(C)C)c(=O)[nH]3)cc21 (stereo not drawn) [Compound #104, 3-(1-(1,1-dioxidothiomorpholino)-3-methylbutan-2-yl)-6-(4-ethyl-3,4-dihydro-2H-benzo[b][1,4]oxazin-6-yl)pyridin-2(1H)-one]
26 | 0.011 µM | 0.044 µM | CCn1ncc2c(F)cc(-c3ccc(C(CC)(CC)CC4CCNC4=O)c(=O)[nH]3)cc21 (stereo not drawn) [compound 40, 6-(1-ethyl-4-fluoro-1H-indazol-6-yl)-3-(3-((2-oxopyrrolidin-3-yl)methyl)pentan-3-yl)pyridin-2(1H)-one]
27 | 0.008 µM | 0.136 µM | CC(C)C(CC(=O)NCCO)c1ccc(-c2ccc3cccc(F)c3c2)[nH]c1=O (stereo not drawn) [compound 258, 3-(6-(8-fluoronaphthalen-2-yl)-2-oxo-1,2-dihydropyridin-3-yl)-N-(2-hydroxyethyl)-4-methyl pentanamide]
28 | 0.106 µM | 1.41 µM | O=C1NC(=O)C2(CCC(c3ccc(-c4ccc5ccccc5c4)[nH]c3=O)CC2)N1 (stereo not drawn) [compound 203, 8-(6-(naphthalen-2-yl)-2-oxo-1,2-dihydropyridin-3-yl)-1,3-diazaspiro[4.5]decane-2,4-dione]
29 | 0.057 µM | 0.212 µM | Cc1cc(C(CC2OC(=O)NC2=O)C(C)C)c(=O)[nH]c1-c1ccc2cccc(F)c2c1 (stereo not drawn) [Compound #112]
30 | 1.35 µM | > 20 µM | CCn1ncc2c(F)c(-c3ccc(C(/C=C4/OC(=O)NC4=O)(CC)CC)c(=O)[nH]3)ccc21 [compound 12, (E)-5-(2-ethyl-2-(6-(1-ethyl-4-fluoro-1H-indazol-5-yl)-2-oxo-1,2-dihydropyridin-3-yl)butylidene)oxazolidine-2,4-dione]

Reference: patent US10336701B2, “Pyridin-2-one derivatives of formula (II) useful as EP3 receptor antagonists” (Janssen Pharmaceutica NV, priority 2017, dated 2019)
